# Key:
# [1] = test system: IL-17 production of T cells via IDO in dendritic cells; test: IL-17 ELISA in co-culture of halofuginone-stimulated dendritic cells and T cells; format: cell-based
# Method: The dendritic cells cultured for 2 days after stimulating with halofuginone and the T cells cultured for 2 days under the condition of differentiating Th17 cells of <2-2> were co-cultured for 2 additional days, and IL-17 was measured using the supernatant by ELISA. That is, the supernatants of the cell cultures were collected and the amount of IL-17 was measured via sandwich ELISA method. To this end, first, the 96-well plate was treated with monoclonal anti-IL-17 ([…]) and reacted at 4° C. overnight, and upon reaction, non-specific binding was blocked using a blocking solution (1% BSA/PBST). Then, IL-17 in a half amount was diluted continuously and used as standards, and the supernatants of cell cultures were reacted at room temperature for 2 hours. Then, the biotinylated anti-IL-17 were reacted at room temperature for 2 hours, washed 4 times, and added with ExtraAvidin-alkaline phosphatase conjugate after dilution, and reacted at room temperature for 2 hours. Subsequently, PNPP/DEA solution was added thereto to develop color and the absorbance was measured at 405 nm.
# [2] = test system: murine bone marrow cells differentiating into osteoclasts; test: Murine bone marrow cell osteoclast differentiation (M-CSF, RANKL): TRAP staining and real-time PCR; format: cell-based, mouse; conditions: 5 days
# Method: For test animals, 6 to 7-week old male DBA-1 mice were used. […] Bone marrow cells were isolated from the tibia and the femur of mice, and the RBC of the isolated bone marrow cells were lysed, inoculated into a 24-well plate after diluting in 10% Minimum α-MEM to a concentration of 2 ? 10^5 cells/well, and cultured for 12 hours. The adherent cells were removed, stimulated with a macrophage-colony stimulating factor (M-CSF) and cultured for 3 days, and treated with M-CSF (10 ng/mL), receptor activator of NF-κB ligand (RANKL; 50 ng/mL), and halofuginone and cultured for 2 days. The medium was replaced in 2 days, retreated in the same manner, and cultured for 2 days.
# Murine bone marrow cells were differentiated for 5 days by stimulating with M-CSF, RANKL, and halofuginone and subjected to TRAP staining according to the method described in Example <1-8> to confirm the number of TRAP positive cells. Additionally, the expression of c-Fos, JunB, and Jpd2 in the bone marrow cells were confirmed by real-time PCR according to the method described in Example <1-6>.
compound,measurement,setting,value
O=C(C[C@H]1NCCC[C@@H]1O)Cn1cnc2cc(Br)c(Cl)cc2c1=O (racemic) [halofuginone],IDO expression in dendritic cells,[1]; FIG. 3D legend,increase
same,production of IL-17,[1]; T cells co-cultured with dendritic cells co-stimulated with 1-MT (an IDO inhibitor) and halofuginone,no decrease
same,production of IL-17,"[1]; T cells co-cultured with dendritic cells stimulated with halofuginone, FIG. 3D",decrease
same,mRNA expression of Jpd2,[2]; FIG. 5C,inhibits
same,mRNA expression of JunB,[2]; FIG. 5C,inhibits
same,mRNA expression of c-Fos,[2]; FIG. 5C,inhibits
same,expression of factors associated with the differentiation of osteoclasts,"[2]; TRAP staining, FIG. 5A",inhibits

# Source: patent US20160220567A1, “COMPOSITION FOR TREATING OR PREVENTING BONE DISEASES, COMPRISING HALOFUGINONE AS ACTIVE INGREDIENT” (THE CATHOLIC UNIVERSITY OF KOREA INDUSTRY-ACADEMIC …, priority 2013, published 2016)
